Source: ChEMBL document CHEMBL4507257, “Data for DCP probe ABT-100” (2021)

Assays:
[1] = tested on: Epidermal growth factor receptor (Homo sapiens), P00533 [UNDEFINED MUTATION]; conditions: Compound concentration 1000.0 nM
[2] = target: Tyrosine-protein kinase TXK (Homo sapiens) (UniProt P42681); conditions: Compound concentration 1000.0 nM
[3] = target: Mitotic checkpoint serine/threonine-protein kinase BUB1 (Homo sapiens) (UniProt O43683); conditions: Compound concentration 1000.0 nM
[4] = target: Ephrin type-B receptor 2 (Homo sapiens) (UniProt P29323); conditions: Compound concentration 1000.0 nM
Ephrin type-B receptor 2 (Homo sapiens), sequence (P29323 whole entry): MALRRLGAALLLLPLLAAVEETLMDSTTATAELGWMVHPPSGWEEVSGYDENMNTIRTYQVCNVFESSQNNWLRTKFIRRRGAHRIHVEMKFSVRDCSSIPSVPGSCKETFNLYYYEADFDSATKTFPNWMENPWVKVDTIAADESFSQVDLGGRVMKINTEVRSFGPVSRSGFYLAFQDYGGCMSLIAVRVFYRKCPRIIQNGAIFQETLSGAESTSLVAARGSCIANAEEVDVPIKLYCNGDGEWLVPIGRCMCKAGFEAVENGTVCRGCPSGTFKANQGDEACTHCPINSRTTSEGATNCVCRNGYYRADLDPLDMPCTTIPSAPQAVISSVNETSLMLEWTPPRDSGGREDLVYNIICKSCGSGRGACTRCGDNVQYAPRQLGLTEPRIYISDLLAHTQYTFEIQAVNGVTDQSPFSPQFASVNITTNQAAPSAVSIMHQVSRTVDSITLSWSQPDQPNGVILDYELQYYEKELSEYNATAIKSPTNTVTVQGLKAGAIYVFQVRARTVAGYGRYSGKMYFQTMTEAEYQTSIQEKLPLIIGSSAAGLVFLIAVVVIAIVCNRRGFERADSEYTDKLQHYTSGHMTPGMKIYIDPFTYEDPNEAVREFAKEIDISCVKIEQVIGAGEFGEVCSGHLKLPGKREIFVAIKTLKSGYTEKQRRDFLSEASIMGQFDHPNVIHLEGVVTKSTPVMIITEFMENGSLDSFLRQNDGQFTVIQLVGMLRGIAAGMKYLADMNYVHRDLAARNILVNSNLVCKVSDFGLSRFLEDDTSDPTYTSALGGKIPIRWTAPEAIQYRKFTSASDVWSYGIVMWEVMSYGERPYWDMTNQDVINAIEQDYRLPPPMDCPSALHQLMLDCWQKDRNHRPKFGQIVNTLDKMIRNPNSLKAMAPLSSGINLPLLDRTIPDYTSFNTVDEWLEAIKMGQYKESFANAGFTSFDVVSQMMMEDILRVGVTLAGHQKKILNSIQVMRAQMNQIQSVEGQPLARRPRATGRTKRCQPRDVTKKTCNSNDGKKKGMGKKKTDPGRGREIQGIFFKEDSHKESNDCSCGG

[5] = target: Mitogen-activated protein kinase kinase kinase 14 (Homo sapiens) (UniProt Q99558); conditions: Compound concentration 1000.0 nM
Mitogen-activated protein kinase kinase kinase 14 (Homo sapiens), sequence (Q99558 whole entry, looked up): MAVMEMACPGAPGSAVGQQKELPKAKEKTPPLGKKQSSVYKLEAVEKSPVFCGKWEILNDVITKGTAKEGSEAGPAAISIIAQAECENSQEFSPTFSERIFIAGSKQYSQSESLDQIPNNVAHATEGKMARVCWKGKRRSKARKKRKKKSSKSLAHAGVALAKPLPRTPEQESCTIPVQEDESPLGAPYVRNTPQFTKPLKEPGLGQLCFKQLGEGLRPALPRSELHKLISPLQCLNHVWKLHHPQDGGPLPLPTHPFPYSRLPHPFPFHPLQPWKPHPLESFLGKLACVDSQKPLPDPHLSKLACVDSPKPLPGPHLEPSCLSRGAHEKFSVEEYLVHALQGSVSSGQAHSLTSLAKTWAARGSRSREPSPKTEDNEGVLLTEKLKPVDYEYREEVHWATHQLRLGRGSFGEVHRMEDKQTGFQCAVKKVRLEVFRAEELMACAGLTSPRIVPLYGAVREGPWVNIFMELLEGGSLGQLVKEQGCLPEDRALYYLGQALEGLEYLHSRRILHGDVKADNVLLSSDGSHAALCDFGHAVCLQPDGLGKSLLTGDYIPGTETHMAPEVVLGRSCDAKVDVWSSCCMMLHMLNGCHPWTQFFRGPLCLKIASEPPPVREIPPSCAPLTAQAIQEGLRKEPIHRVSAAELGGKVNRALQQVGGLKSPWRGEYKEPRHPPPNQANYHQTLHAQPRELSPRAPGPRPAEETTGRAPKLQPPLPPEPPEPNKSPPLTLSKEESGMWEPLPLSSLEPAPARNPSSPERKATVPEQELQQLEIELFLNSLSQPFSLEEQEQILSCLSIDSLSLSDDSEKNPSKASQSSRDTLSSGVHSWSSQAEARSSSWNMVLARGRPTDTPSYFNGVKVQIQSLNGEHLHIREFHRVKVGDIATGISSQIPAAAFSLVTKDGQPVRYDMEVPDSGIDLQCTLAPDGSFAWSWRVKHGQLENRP

[6] = target: Calcium/calmodulin-dependent protein kinase type 1D (Homo sapiens) (UniProt Q8IU85); conditions: Compound concentration 1000.0 nM
[7] = target: Cyclin-dependent kinase-like 3 (Homo sapiens) (UniProt Q8IVW4); conditions: Compound concentration 1000.0 nM
[8] = target: Insulin receptor-related protein (Homo sapiens) (UniProt P14616); conditions: Compound concentration 1000.0 nM
[9] = target: Phosphatidylinositol 4,5-bisphosphate 3-kinase catalytic subunit alpha isoform (Homo sapiens) (UniProt P42336); conditions: Compound concentration 1000.0 nM
[10] = target: Alpha-2A adrenergic receptor (Homo sapiens) (UniProt P08913); conditions: Compound concentration 10.0 uM
[11] = target: Vascular endothelial growth factor receptor 1 (Homo sapiens) (UniProt P17948); conditions: Compound concentration 1000.0 nM
[12] = target: Tyrosine-protein kinase JAK1 (Homo sapiens) (UniProt P23458); conditions: Compound concentration 1000.0 nM
Tyrosine-protein kinase JAK1 (Homo sapiens), sequence (P23458 whole entry): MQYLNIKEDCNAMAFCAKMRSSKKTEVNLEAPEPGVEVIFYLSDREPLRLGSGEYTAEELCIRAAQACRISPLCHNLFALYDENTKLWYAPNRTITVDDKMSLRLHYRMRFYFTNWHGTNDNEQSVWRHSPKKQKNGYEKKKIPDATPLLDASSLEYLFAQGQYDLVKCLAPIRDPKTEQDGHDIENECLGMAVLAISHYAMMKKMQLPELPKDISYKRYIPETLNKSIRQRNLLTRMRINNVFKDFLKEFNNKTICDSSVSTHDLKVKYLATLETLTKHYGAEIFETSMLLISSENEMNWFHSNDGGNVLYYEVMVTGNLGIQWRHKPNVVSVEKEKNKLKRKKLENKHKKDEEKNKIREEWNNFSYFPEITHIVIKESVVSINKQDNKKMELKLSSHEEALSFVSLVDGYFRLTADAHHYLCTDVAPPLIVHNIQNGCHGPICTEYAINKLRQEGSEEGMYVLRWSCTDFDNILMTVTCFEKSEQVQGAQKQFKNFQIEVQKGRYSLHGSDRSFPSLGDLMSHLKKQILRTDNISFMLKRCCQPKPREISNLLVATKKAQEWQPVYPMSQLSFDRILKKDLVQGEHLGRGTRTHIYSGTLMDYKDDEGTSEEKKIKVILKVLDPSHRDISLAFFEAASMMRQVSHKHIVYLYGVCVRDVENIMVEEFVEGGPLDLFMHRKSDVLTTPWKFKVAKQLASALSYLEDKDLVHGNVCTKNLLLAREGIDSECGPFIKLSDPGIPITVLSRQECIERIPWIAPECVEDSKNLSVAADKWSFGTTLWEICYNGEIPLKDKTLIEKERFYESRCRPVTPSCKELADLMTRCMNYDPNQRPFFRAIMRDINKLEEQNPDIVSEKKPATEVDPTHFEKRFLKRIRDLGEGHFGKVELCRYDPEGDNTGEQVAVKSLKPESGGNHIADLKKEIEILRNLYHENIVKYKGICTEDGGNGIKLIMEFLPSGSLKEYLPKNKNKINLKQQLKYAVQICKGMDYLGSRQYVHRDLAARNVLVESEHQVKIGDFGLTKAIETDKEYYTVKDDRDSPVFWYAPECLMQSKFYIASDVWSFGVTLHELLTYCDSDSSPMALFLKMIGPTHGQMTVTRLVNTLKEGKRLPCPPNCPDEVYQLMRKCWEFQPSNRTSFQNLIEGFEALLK

[13] = target: Serine/threonine-protein kinase/endoribonuclease IRE1 (Homo sapiens) (UniProt O75460); conditions: Compound concentration 1000.0 nM
[14] = target: MAP kinase-interacting serine/threonine-protein kinase 1 (Homo sapiens) (UniProt Q9BUB5); conditions: Compound concentration 1000.0 nM
[15] = target: RAC-gamma serine/threonine-protein kinase (Homo sapiens) (UniProt Q9Y243); conditions: Compound concentration 1000.0 nM
[16] = target: Serine/threonine-protein kinase 3 (Homo sapiens) (UniProt Q13188); conditions: Compound concentration 1000.0 nM
[17] = target: Calcium/calmodulin-dependent protein kinase type II subunit beta (Homo sapiens) (UniProt Q13554); conditions: Compound concentration 1000.0 nM
[18] = target: Dual specificity mitogen-activated protein kinase kinase 2 (Homo sapiens) (UniProt P36507); conditions: Compound concentration 1000.0 nM
[19] = target: Macrophage-stimulating protein receptor (Homo sapiens) (UniProt Q04912); conditions: Compound concentration 1000.0 nM
[20] = target: Dual specificity protein kinase CLK2 (Homo sapiens) (UniProt P49760); conditions: Compound concentration 1000.0 nM
[21] = target: Macrophage colony-stimulating factor 1 receptor (Homo sapiens) (UniProt P07333); conditions: Compound concentration 1000.0 nM
[22] = tested on: Tyrosine-protein kinase ABL1 (Homo sapiens), P00519 [Y253F]; conditions: Compound concentration 1000.0 nM
[23] = target: Discoidin domain-containing receptor 2 (Homo sapiens) (UniProt Q16832); conditions: Compound concentration 1000.0 nM
[24] = target: Kappa-type opioid receptor (Homo sapiens) (UniProt P41145); conditions: Compound concentration 10.0 uM
[25] = target: Interleukin-1 receptor-associated kinase 3 (Homo sapiens) (UniProt Q9Y616); conditions: Compound concentration 1000.0 nM
[26] = target: Serine/threonine-protein kinase PAK 4 (Homo sapiens) (UniProt O96013); conditions: Compound concentration 1000.0 nM
[27] = target: Tyrosine-protein kinase Fes/Fps (Homo sapiens) (UniProt P07332); conditions: Compound concentration 1000.0 nM
[28] = target: Serine/threonine-protein kinase TAO3 (Homo sapiens) (UniProt Q9H2K8); conditions: Compound concentration 1000.0 nM
[29] = target: Eukaryotic translation initiation factor 2-alpha kinase 1 (Homo sapiens) (UniProt Q9BQI3); conditions: Compound concentration 1000.0 nM
[30] = target: Fibroblast growth factor receptor 4 (Homo sapiens) (UniProt P22455); conditions: Compound concentration 1000.0 nM
[31] = target: Serine/threonine-protein kinase OSR1 (Homo sapiens) (UniProt O95747); conditions: Compound concentration 1000.0 nM
[32] = tested on: Hepatocyte growth factor receptor (Homo sapiens), P08581 [Y1235D]; conditions: Compound concentration 1000.0 nM
[33] = target: Cyclin-dependent kinase 8 (Homo sapiens) (UniProt P49336); conditions: Compound concentration 1000.0 nM
Cyclin-dependent kinase 8 (Homo sapiens), sequence (P49336 whole entry): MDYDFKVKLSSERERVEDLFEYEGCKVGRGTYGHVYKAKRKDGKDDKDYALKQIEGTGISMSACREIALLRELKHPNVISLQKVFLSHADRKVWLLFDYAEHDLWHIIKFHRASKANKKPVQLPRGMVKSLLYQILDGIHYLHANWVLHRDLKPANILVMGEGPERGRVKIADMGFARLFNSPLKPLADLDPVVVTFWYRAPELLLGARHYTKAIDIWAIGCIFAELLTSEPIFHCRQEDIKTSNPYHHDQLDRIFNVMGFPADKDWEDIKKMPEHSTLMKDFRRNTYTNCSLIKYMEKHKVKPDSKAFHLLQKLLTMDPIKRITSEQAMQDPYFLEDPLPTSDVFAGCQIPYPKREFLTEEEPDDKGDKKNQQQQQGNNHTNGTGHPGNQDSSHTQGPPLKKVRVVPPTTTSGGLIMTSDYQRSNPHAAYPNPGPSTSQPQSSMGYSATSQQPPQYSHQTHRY

[34] = tested on: Tyrosine-protein kinase ABL1 (Homo sapiens), P00519 [H396P]; conditions: Compound concentration 1000.0 nM
[35] = target: Ribosomal protein S6 kinase alpha-3 (Homo sapiens) (UniProt P51812); conditions: Compound concentration 1000.0 nM
[36] = tested on: Tyrosine-protein kinase ABL1 (Homo sapiens), P00519 [Q252H]; conditions: Compound concentration 1000.0 nM
[37] = target: Uncharacterized serine/threonine-protein kinase SBK3 (Homo sapiens) (UniProt P0C264); conditions: Compound concentration 1000.0 nM
[38] = target: Dual specificity protein kinase CLK3 (Homo sapiens) (UniProt P49761); conditions: Compound concentration 1000.0 nM
[39] = target: Tyrosine-protein kinase JAK1 (Homo sapiens) (UniProt P23458); conditions: Compound concentration 1000.0 nM; remark: listed apart in the source
[40] = target: Serine/threonine-protein kinase PRP4 homolog (Homo sapiens) (UniProt Q13523); conditions: Compound concentration 1000.0 nM
[41] = tested on: Epidermal growth factor receptor (Homo sapiens), P00533 [UNDEFINED MUTATION]; conditions: Compound concentration 1000.0 nM; remark: listed apart in the source
[42] = target: Activin receptor type-1 (Homo sapiens) (UniProt Q04771); conditions: Compound concentration 1000.0 nM
[43] = target: G protein-coupled receptor kinase 4 (Homo sapiens) (UniProt P32298); conditions: Compound concentration 1000.0 nM
[44] = target: Megakaryocyte-associated tyrosine-protein kinase (Homo sapiens) (UniProt P42679); conditions: Compound concentration 1000.0 nM
[45] = target: Testis-specific serine/threonine-protein kinase 1 (Homo sapiens) (UniProt Q9BXA7); conditions: Compound concentration 1000.0 nM

Epidermal growth factor receptor (Homo sapiens), P00533 [UNDEFINED MUTATION], sequence (P00533 whole entry, looked up, change not shown): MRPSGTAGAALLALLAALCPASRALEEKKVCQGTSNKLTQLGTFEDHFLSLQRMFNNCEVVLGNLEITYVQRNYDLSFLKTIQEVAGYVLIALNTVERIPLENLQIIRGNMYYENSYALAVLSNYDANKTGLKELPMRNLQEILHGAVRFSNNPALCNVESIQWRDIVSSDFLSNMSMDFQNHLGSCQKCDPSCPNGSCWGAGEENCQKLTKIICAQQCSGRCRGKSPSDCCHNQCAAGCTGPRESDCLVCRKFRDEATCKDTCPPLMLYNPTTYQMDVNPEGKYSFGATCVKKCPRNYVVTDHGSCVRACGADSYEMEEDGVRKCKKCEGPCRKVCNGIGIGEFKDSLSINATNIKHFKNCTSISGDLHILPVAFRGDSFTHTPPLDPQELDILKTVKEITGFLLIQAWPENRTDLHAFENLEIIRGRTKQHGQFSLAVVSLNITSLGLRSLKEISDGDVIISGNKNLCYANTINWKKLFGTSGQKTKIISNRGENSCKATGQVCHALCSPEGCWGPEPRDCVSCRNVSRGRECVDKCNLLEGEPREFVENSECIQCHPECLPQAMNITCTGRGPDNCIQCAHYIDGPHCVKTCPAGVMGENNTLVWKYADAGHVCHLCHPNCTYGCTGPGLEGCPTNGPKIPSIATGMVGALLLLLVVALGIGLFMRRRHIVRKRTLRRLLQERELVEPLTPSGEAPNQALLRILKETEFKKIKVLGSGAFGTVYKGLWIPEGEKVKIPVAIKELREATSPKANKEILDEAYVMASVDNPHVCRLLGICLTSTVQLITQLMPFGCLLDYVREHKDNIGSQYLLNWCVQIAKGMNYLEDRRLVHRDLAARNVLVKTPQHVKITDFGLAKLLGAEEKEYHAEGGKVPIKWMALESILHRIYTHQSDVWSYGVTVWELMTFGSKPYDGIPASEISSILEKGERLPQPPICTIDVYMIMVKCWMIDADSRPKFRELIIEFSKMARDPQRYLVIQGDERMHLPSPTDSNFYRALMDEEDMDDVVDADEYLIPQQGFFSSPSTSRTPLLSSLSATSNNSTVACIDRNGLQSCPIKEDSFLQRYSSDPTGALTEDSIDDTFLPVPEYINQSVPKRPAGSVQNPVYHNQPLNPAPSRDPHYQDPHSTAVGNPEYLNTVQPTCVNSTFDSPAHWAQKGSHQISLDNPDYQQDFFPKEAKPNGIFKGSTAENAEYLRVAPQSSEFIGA

Cn1cncc1[C@](O)(COc1ccc(C#N)cc1-c1ccc(OC(F)(F)F)cc1)c1ccc(C#N)cc1 [ABT-100]
inactive: residual activity [1] 76% | residual activity [2] 87% | residual activity [3] 85% | residual activity [4] 94% | residual activity [5] 88% | residual activity [6] 100% | residual activity [7] 87% | residual activity [8] 93% | residual activity [9] 100% | inhibition [10] 32.2% | residual activity [11] 98% | residual activity [12] 70% | residual activity [13] 100% | residual activity [14] 68% | residual activity [15] 100% | residual activity [16] 77% | residual activity [17] 85% | residual activity [18] 94% | residual activity [19] 100% | residual activity [20] 87% | residual activity [21] 94% | residual activity [22] 94% | residual activity [23] 100% | inhibition [24] -7.18% | residual activity [25] 71% | residual activity [26] 100% | residual activity [27] 100% | residual activity [28] 87% | residual activity [29] 100% | residual activity [30] 100% | residual activity [31] 100% | residual activity [32] 78% | residual activity [33] 66% | residual activity [34] 91% | residual activity [35] 87% | residual activity [36] 100% | residual activity [37] 100% | residual activity [38] 75% | residual activity [39] 59% | residual activity [40] 100% | residual activity [41] 93% | residual activity [42] 78% | residual activity [43] 62% | residual activity [44] 98% | residual activity [45] 100%

Cn1cncc1[C@@](O)(COc1ccc(C#N)cc1-c1ccc(OC(F)(F)F)cc1)c1ccc(C#N)cc1 [A-108]
inactive: residual activity [1] 100% | residual activity [2] 85% | residual activity [3] 98% | residual activity [4] 100% | residual activity [5] 92% | residual activity [6] 100% | residual activity [7] 81% | residual activity [8] 96% | residual activity [9] 72% | inhibition [10] 3.37% | residual activity [11] 83% | residual activity [12] 92% | residual activity [13] 95% | residual activity [14] 81% | residual activity [15] 100% | residual activity [16] 95% | residual activity [17] 90% | residual activity [18] 74% | residual activity [19] 100% | residual activity [20] 90% | residual activity [21] 85% | residual activity [22] 92% | residual activity [23] 95% | inhibition [24] 1.27% | residual activity [25] 91% | residual activity [26] 100% | residual activity [27] 100% | residual activity [28] 100% | residual activity [29] 100% | residual activity [30] 100% | residual activity [31] 75% | residual activity [32] 100% | residual activity [33] 100% | residual activity [34] 88% | residual activity [35] 72% | residual activity [36] 84% | residual activity [37] 92% | residual activity [38] 100% | residual activity [39] 100% | residual activity [40] 100% | residual activity [41] 100% | residual activity [42] 100% | residual activity [43] 56% | residual activity [44] 100% | residual activity [45] 70%
